These results are taken from article PMC6406907, “A H2AX–CARP-1 Interaction Regulates Apoptosis Signaling Following DNA Damage” (Cancers, 2019).

Holding throughout (type): cell-based, human
One test concerns CARP-1 and γH2AX. Briefly: WB/IF of CARP-1 and γH2AX in HCC827. The settings on record: for CARP-1 and γH2AX increase after knock-down of CARP-1: HCC827, CARP-1 knock-down; for CARP-1 levels and γH2AX: HCC827, WB / IF. On the procedure: (§1) Logarithmically growing cells were either untreated or treated with different agents for various time periods. The cells were lysed to prepare protein extracts. IP was carried out by incubating approximately 1 mg of the protein lysate with appropriate antibodies. The immunoprecipitates were then analyzed by SDS-PAGE, followed by WB with respective, interacting protein. For Gst-pulldown, Gst-H2AX or various His-TAT-HA-tagged CARP-1 peptides were generated in Escherichia coli (E. coli) BL21 cells essentially as described by us previously. Briefly, the competent E. coli BL-21 (DE3) pLysS cells were transformed separately with various recombinant pGEX-4T-1 or pTAT-HA constructs. The transformed cells were then subjected to selection by combined presence of ampicillin and chloramphenicol; various isolates for each transformation were obtained and bacterial lysates were characterized for expression of fusion peptides. Cells from each isolate were grown in 4 mL of LB medium containing ampicillin only until the optical density (OD)600 reached 0.4–0.8. Expression of fusion peptides was induced over 2–4 h incubation periods after Isopropyl β-D-1-thiogalactopyranoside (IPTG) addition. The cells were harvested, and pellets were stored at −80 °C overnight. The cell pellets were then lysed in 100–400 μL of bacterial protein extraction reagent (BPER) buffer (Thermo Scientific, Waltham, MA, USA, Cat# 78243) containing 2 μL/mL of 10 units/μL DNAse I (Boehringer Mannheim, Fremont, CA, USA, Cat # 776–785), and supernatant checked for expression of respective fusion peptides by WB. Following confirmation of expression, 5–20 μL of lysate expressing Gst fusion protein was first incubated with 20 μL of precleared glutathione sepharose in a final volume of 100 μL at 4 °C for 2 h with constant rotation. The sepharose beads were spun at 800× g for 2 min, and the pellet was washed 2–4 times with 100–200 μL of RIPA buffer (20 mM Tris-HCl (pH 7.5), 150 mM NaCl, 1 mM Na2EDTA, 1 mM EGTA, 1% NP-40, 1% sodium deoxycholate, 2.5 mM sodium pyrophosphate, 1 mM β-glycerophosphate, 1 mM Na3VO4, 1 µg/mL leupeptin) with 0.5 M NaCl. The beads were spun again as above, and mixed with 5–20 μL of E. coli lysate expressing His-TAT-HA CARP-1 peptides. The reactions were incubated further at 4 °C for 2 h with constant rotation. The peptide-bound sepharose beads were pelleted and washed with 100–200 μL of RIPA buffer with 0.1 M NaCl for 2–4 washes. In some cases, additional washes with 0.05 M NaCl buffer were carried out. After the final wash, the sepharose–protein complexes were spun, and then re-suspended in SDS loading buffer for electrophoresis on 12–15% SDS PAGE, followed by WB with appropriate antibodies.
Cells were plated onto chamber slides one day before treatment. […]

In test [1] the test system is CARP-1 interaction with γH2AX. Briefly: Co-immunoprecipitation of myc-His-CARP-1 with γH2AX. To be noted: for interaction of wild-type CARP-1 with γH2AX: MDA-MB-468 cells expressing myc-His-tagged CARP-1 (WT), IP/WB; for interaction of CARP-1 (Δ600–650) with γH2AX: in-frame deletion of CARP-1 amino acids 600–650, IP/WB. How it is done: as §1
We next carried out mutagenesis-based studies to map the interacting epitopes of CARP-1 and H2AX proteins. […]

Test [2] concerns MDA-MB-468 cells expressing EGFP or EGFP-CARP-1 (636–650). The test is described as follows: Flow cytometric analysis of apoptosis, MDA-MB-468 sublines. To be noted: 10 μM, 24 h, EGFP vs EGFP-CARP-1 (636–650)-expressing MDA-MB-468.

The structures appear in SMILES notation.

Turning to `COc1cccc2c1C(=O)c1c(O)c3c(c(O)c1C2=O)C[C@@](O)(C(=O)CO)C[C@@H]3O[C@H]1C[C@H](N)[C@H](O)[C@H](C)O1` [Adriamycin, doxorubicin, reference compound], in the test on CARP-1 and γH2AX, the “CARP-1 and γH2AX increase after knock-down of CARP-1” value is “abrogated CARP-1 and γH2AX increase”; the “CARP-1 levels and γH2AX” value was “robust increase in CARP-1 levels and γH2AX”. Further, in test [1], the “interaction of wild-type CARP-1 with γH2AX” value is on record as “robust interaction of wild-type CARP-1 with γH2AX” and the “interaction of CARP-1 (Δ600–650) with γH2AX” value is given as “abrogated CARP-1 interaction with γH2AX”. Besides, in test [2], the cells undergoing apoptosis result is “generally higher percentage of EGFP-expressing cells undergoing apoptosis”.

In the case of `O=C1N(Cc2ccccc2Cl)c2ccccc2C12NN=C(c1cccc(Cl)c1)S2` (stereo not shown) [CFM-4.16], in the test with CARP-1 and γH2AX, the “CARP-1 and γH2AX increase after knock-down of CARP-1” value is “abrogated CARP-1 and γH2AX increase”; the “CARP-1 levels and γH2AX” value is “robust increase in CARP-1 levels and γH2AX”. Further, in test [1], the “interaction of wild-type CARP-1 with γH2AX” value was “robust interaction of wild-type CARP-1 with γH2AX” and the “interaction of CARP-1 (Δ600–650) with γH2AX” value is given as “abrogated CARP-1 interaction with γH2AX”. Further, the cells undergoing apoptosis entry in test [2] was “generally higher percentage of EGFP-expressing cells undergoing apoptosis”.
